The source of these data is patent publication US20240360178A1, “MACROCYCLIC IMMUNOMODULATORS” (Bristol-Myers Squibb Company, priority 2021, published 2024).

SMILES strings stand for the structures. Positions of bridges follow the written chain, without caps; N, C: chain ends. Non-standard residues stand in square brackets, D forms with d. Residues, ends and D or L forms follow the SMILES beside them. *: point of attachment. Bip = N[C@@H](Cc1ccc(-c2ccccc2)cc1)C(=O)O; Phe(3-Me) = Cc1cccc(C[C@H](N)C(=O)O)c1; NMeF = CN[C@@H](Cc1ccccc1)C(=O)O; 4Pal = N[C@@H](Cc1ccncc1)C(=O)O; Cha = N[C@@H](CC1CCCCC1)C(=O)O; Phg = N[C@H](C(=O)O)c1ccccc1; Tle = CC(C)(C)[C@H](N)C(=O)O; Carboxymethyl = O=C(O)C*; NMeA = CN[C@@H](C)C(=O)O; Dab = NCC[C@H](N)C(=O)O; NBuGly = CCCCNCC(=O)O; Sar = CNCC(=O)O

In general, IC50 refers to the concentration that inhibits the measured activity by half.

The test deals with T1, human PD-1 (Jurkat-PD-1 cells) / PE-labeled human PD-L1-Ig (Homo sapiens, UniProt Q15116).
T1 construct: expressed in transfected cells; host or cells: Jurkat cell line over-expressing human PD-1
T1 sequence (Q15116 25-288): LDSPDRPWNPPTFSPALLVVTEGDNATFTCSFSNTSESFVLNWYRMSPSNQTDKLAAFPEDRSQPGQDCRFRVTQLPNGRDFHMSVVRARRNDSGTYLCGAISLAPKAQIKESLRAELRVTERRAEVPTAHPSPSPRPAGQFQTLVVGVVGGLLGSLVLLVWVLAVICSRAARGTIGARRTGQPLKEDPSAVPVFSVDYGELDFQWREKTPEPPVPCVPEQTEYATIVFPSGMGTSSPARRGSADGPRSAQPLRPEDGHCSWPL
The test can be described thus: Jurkat-PD-1 Cell Binding High-Content Screening Assay (CBA); Jurkat hPD1-PDL1 assay. The conditions noted are these: Jurkat cell line over-expressing human PD-1; PE-labeled PD-L1-Ig 20 nM final; compound incubated 2 hours at 37° C.; read-out: Jurkat HPD1-PDL1 IC50. The method in brief: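 Cell binding by imaging: Jurkat line stably over-expressing human PD-1, compound pre-exposure 2 h at 37° C, PE-conjugated PD-L1-Ig 20 nM final, medium DMEM containing 10% FCS.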

Take `CCCCN1CC(=O)N[C@@H](CCN)C(=O)N[C@@H](CC2CCCCC2)C(=O)N[C@@H](C(C)C)C(=O)N[C@@H](CO)C(=O)N[C@H](C(=O)N[C@@H](CCN)C(N)=O)CSCC(=O)N[C@@H](Cc2ccncc2)C(=O)N[C@@H](Cc2ccc(OCC(=O)O)cc2)C(=O)N[C@@H](CC(=O)O)C(=O)N[C@@H](Cc2cccc(C)c2)C(=O)N[C@@H](Cc2ccc(OCC(=O)O)cc2)C(=O)N[C@@H](Cc2ccc(-c3ccccc3)cc2)C(=O)N[C@@H](Cc2ccc(OCC(=O)O)cc2)C(=O)N(C)[C@@H](C)C1=O` [Example 1187] ({CH2CO}-[4Pal]Y(Carboxymethyl)D[Phe(3-Me)]Y(Carboxymethyl)[Bip]Y(Carboxymethyl)[NMeA][NBuGly][Dab][Cha]VSC[Dab]-NH2; thioether N-14): the IC50 was 0.29 µM. Turning to `CC(C)C[C@@H]1NC(=O)[C@H](CCCNC(=N)N)NC(=O)[C@H](Cc2ccccc2)N(C)C(=O)[C@H](C)N(C)C(=O)[C@H](CCCNC(=N)N)NC(=O)[C@H](Cc2ccc(-c3ccccc3)cc2)NC(=O)[C@H](C(C)C)NC(=O)[C@H](Cc2c[nH]c3ccccc23)NC(=O)[C@H](CC(=O)O)NC(=O)[C@H](Cc2ccc(O)cc2)NC(=O)[C@H](C)NC(=O)CSC[C@@H](C(=O)NCC(N)=O)NC(=O)[C@H](CO)NC(=O)[C@H](C(C)C)NC1=O` [Example 1203] ({CH2CO}-AYDWV[Bip]R[NMeA][NMeF]RLVSCG-NH2; thioether N-14), the IC50 is 0.85 µM.

For the molecule `CC(C)C[C@@H]1NC(=O)[C@H](Cc2c[nH]c3ccccc23)NC(=O)[C@H](CC(=O)O)NC(=O)[C@H](Cc2ccc(O)cc2)NC(=O)[C@H](Cc2ccccc2)NC(=O)CSC[C@@H](C(=O)NCC(N)=O)NC(=O)[C@H](CO)NC(=O)[C@H](C(C)C)NC(=O)[C@H](CC(C)C)NC(=O)[C@H](CC(N)=O)NC(=O)[C@H]2CCCN2C(=O)[C@H](C)N(C)C(=O)[C@H](C(C)C)NC(=O)[C@H](Cc2ccc(-c3ccccc3)cc2)NC1=O` [Example 1035] ({CH2CO}-FYDWL[Bip]V[NMeA][dP]NLVSCG-NH2; thioether N-14), the 50% inhibitory concentration (IC50) was found to be 0.06 µM. In the case of `CC(C)C[C@@H]1NC(=O)[C@H](Cc2c[nH]c3ccccc23)NC(=O)[C@H](CC(=O)O)NC(=O)[C@H](Cc2ccc(O)cc2)NC(=O)[C@H](Cc2cnc[nH]2)NC(=O)CSC[C@@H](C(=O)NCC(N)=O)NC(=O)[C@H](CO)NC(=O)[C@H](C(C)C)NC(=O)[C@H](CC(C)C)NC(=O)[C@H](CC(N)=O)NC(=O)CN(C)C(=O)[C@H](C)N(C)C(=O)[C@H](C(C)C)NC(=O)[C@H](Cc2ccc(-c3ccccc3)cc2)NC1=O` [Example 1150] ({CH2CO}-HYDWL[Bip]V[NMeA][Sar]NLVSCG-NH2; thioether N-14), the IC50 was determined as 0.69 µM. Next, `CC(C)C[C@@H]1NC(=O)[C@H](CCN)NC(=O)[C@H](Cc2ccccc2)N(C)C(=O)[C@H](C)N(C)C(=O)[C@H](CCCNC(=N)N)NC(=O)[C@H](Cc2ccc(-c3ccccc3)cc2)NC(=O)[C@H](C(C)C)NC(=O)[C@H](Cc2c[nH]c3ccccc23)NC(=O)[C@H](CC(=O)O)NC(=O)[C@H](Cc2ccc(O)cc2)NC(=O)[C@H](CCC(N)=O)NC(=O)CSC[C@@H](C(=O)NCC(N)=O)NC(=O)[C@H](CO)NC(=O)[C@H](C(C)C)NC1=O` [Example 1309] ({CH2CO}-QYDWV[Bip]R[NMeA][NMeF][Dab]LVSCG-NH2; thioether N-14): 0.34 µM. For `CC(C)C[C@@H]1NC(=O)[C@H](Cc2c[nH]c3ccccc23)NC(=O)[C@H](CC(=O)O)NC(=O)[C@H](Cc2ccc(O)cc2)NC(=O)[C@H](Cc2ccccc2)NC(=O)CSC[C@@H](C(=O)N[C@@H](CCC(=O)O)C(N)=O)NC(=O)[C@H](CO)NC(=O)[C@H](C(C)C)NC(=O)[C@H](CC(C)C)NC(=O)[C@H](CC(N)=O)NC(=O)CN(C)C(=O)[C@H](C)N(C)C(=O)[C@H](C(C)C)NC(=O)[C@H](Cc2ccc(-c3ccccc3)cc2)NC1=O` [Example 1251] ({CH2CO}-FYDWL[Bip]V[NMeA][Sar]NLVSCE-NH2; thioether N-14), the IC50 amounted to 0.36 µM.

For `CC(C)C[C@@H]1NC(=O)[C@H](C(C)C)NC(=O)CN(C)C(=O)[C@H](C)N(C)C(=O)[C@H](C(C)C)NC(=O)[C@H](Cc2ccc(-c3ccccc3)cc2)NC(=O)[C@H](Cc2ccc(O)cc2)NC(=O)[C@H](Cc2c[nH]c3ccccc23)NC(=O)[C@H](CC(=O)O)NC(=O)[C@H](Cc2ccc(O)cc2)NC(=O)[C@H](Cc2ccccc2)NC(=O)CSC[C@@H](C(=O)NCC(N)=O)NC(=O)[C@H](CO)NC(=O)[C@H](C(C)C)NC1=O` [Example 1235] ({CH2CO}-FYDWY[Bip]V[NMeA][Sar]VLVSCG-NH2; thioether N-14), the IC50 was found to be 0.11 µM. Next, `CC(C)C[C@@H]1NC(=O)[C@H](CCCNC(=N)N)NC(=O)[C@H](Cc2ccccc2)N(C)C(=O)[C@H](C)N(C)C(=O)[C@H](CCCNC(=N)N)NC(=O)[C@H](Cc2ccc(-c3ccccc3)cc2)NC(=O)[C@H](c2ccccc2)NC(=O)[C@H](Cc2c[nH]c3ccccc23)NC(=O)[C@H](CC(=O)O)NC(=O)[C@H](Cc2ccc(O)cc2)NC(=O)[C@H](Cc2ccccc2)NC(=O)CSC[C@@H](C(=O)NCC(N)=O)NC(=O)[C@H](CO)NC(=O)[C@H](C(C)C)NC1=O` [Example 1334] ({CH2CO}-FYDW[Phg][Bip]R[NMeA][NMeF]RLVSCG-NH2; thioether N-14): 0.43 µM; `CC(C)C[C@@H]1NC(=O)[C@H](C)NC(=O)CN(C)C(=O)[C@H](C)N(C)C(=O)[C@H](C(C)C)NC(=O)[C@H](Cc2ccc(-c3ccccc3)cc2)NC(=O)[C@H](CC(C)C)NC(=O)[C@H](Cc2c[nH]c3ccccc23)NC(=O)[C@H](CC(=O)O)NC(=O)[C@H](Cc2ccc(O)cc2)NC(=O)[C@H](Cc2ccccc2)NC(=O)CSC[C@@H](C(=O)N[C@@H](C)C(N)=O)NC(=O)[C@H](CO)NC(=O)[C@H](C(C)C)NC1=O` [Example 1158] ({CH2CO}-FYDWL[Bip]V[NMeA][Sar]ALVSCA-NH2; thioether N-14): 0.84 µM; `CC(C)C[C@@H]1NC(=O)[C@H](CCCNC(=N)N)NC(=O)[C@H](Cc2ccccc2)N(C)C(=O)[C@H](C)N(C)C(=O)[C@H](CCCNC(=N)N)NC(=O)[C@H](Cc2ccc(-c3ccccc3)cc2)NC(=O)[C@H](C(C)C)NC(=O)[C@H](Cc2c[nH]c3ccccc23)NC(=O)[C@H](CC(=O)O)NC(=O)[C@H](Cc2ccc(O)cc2)NC(=O)[C@H](Cc2ccccc2)NC(=O)CSC[C@@H](C(=O)NCC(N)=O)NC(=O)[C@H](CO)NC(=O)[C@H](C(C)(C)C)NC1=O` [Example 1143] ({CH2CO}-FYDWV[Bip]R[NMeA][NMeF]RL[Tle]SCG-NH2; thioether N-14): 0.62 µM. Consider `CC(C)C[C@@H]1NC(=O)[C@H](CCCNC(=N)N)NC(=O)[C@H](Cc2ccccc2)N(C)C(=O)[C@H](C)N(C)C(=O)[C@H](CCCNC(=N)N)NC(=O)[C@H](Cc2ccc(-c3ccccc3)cc2)NC(=O)[C@H](C(C)C)NC(=O)[C@H](Cc2c[nH]c3ccccc23)NC(=O)[C@H](CC(=O)O)NC(=O)[C@H](Cc2ccc(O)cc2)NC(=O)[C@H](Cc2ccccc2)NC(=O)CSC[C@@H](C(=O)N[C@@H](CO)C(N)=O)NC(=O)[C@H](CO)NC(=O)[C@H](C(C)C)NC1=O` [Example 1083] ({CH2CO}-FYDWV[Bip]R[NMeA][NMeF]RLVSCS-NH2; thioether N-14), for which the IC50 is 0.24 µM. With `CC(C)C[C@@H]1NC(=O)[C@H](Cc2c[nH]c3ccccc23)NC(=O)[C@H](CC(=O)O)NC(=O)[C@H](Cc2ccc(O)cc2)NC(=O)[C@H](Cc2ccccc2)NC(=O)CSC[C@@H](C(=O)N[C@@H](CCCCN)C(N)=O)NC(=O)[C@H](CO)NC(=O)[C@H](C(C)C)NC(=O)[C@H](CC(C)C)NC(=O)[C@H](CC(N)=O)NC(=O)CN(C)C(=O)[C@H](C)N(C)C(=O)[C@H](C(C)C)NC(=O)[C@H](Cc2ccc(-c3ccccc3)cc2)NC1=O` [Example 1253] ({CH2CO}-FYDWL[Bip]V[NMeA][Sar]NLVSCK-NH2; thioether N-14), the half-inhibitory concentration (IC50) stood at 0.71 µM.

Take `Cc1cccc(C[C@@H]2NC(=O)[C@H](Cc3ccccc3)NC(=O)CSC[C@@H](C(=O)N[C@@H](C)C(N)=O)NC(=O)[C@H](CO)NC(=O)[C@H](C(C)C)NC(=O)[C@H](CC(C)C)NC(=O)[C@H](CC(N)=O)NC(=O)[C@H]3CCCN3C(=O)[C@H](C)N(C)C(=O)[C@H](C(C)C)NC(=O)[C@H](Cc3ccc(-c4ccccc4)cc3)NC(=O)[C@H](CC(C)C)NC(=O)[C@H](Cc3c[nH]c4ccccc34)NC(=O)[C@H](CC(=O)O)NC2=O)c1` [Example 1033] ({CH2CO}-F[Phe(3-Me)]DWL[Bip]V[NMeA][dP]NLVSCA-NH2; thioether N-14): the IC50 came to 0.06 µM. As for `CC(C)C[C@@H]1NC(=O)[C@H](Cc2c[nH]c3ccccc23)NC(=O)[C@H](CC(=O)O)NC(=O)[C@H](Cc2ccc(O)cc2)NC(=O)[C@H](Cc2ccccc2)NC(=O)CSC[C@@H](C(=O)N[C@@H](C)C(N)=O)NC(=O)[C@H](CO)NC(=O)[C@H](C(C)C)NC(=O)[C@H](CC(C)C)NC(=O)[C@H](CC(N)=O)NC(=O)[C@H]2CCCN2C(=O)[C@@H](CCCCN)NC(=O)[C@H](C(C)C)NC(=O)[C@H](Cc2ccc(-c3ccccc3)cc2)NC1=O` [Example 1197] ({CH2CO}-FYDWL[Bip]V[dK][dP]NLVSCA-NH2; thioether N-14), the figure is 0.42 µM. As to `CC(C)C[C@@H]1NC(=O)[C@H](Cc2c[nH]c3ccccc23)NC(=O)[C@H](CC(=O)O)NC(=O)[C@H](Cc2ccc(O)cc2)NC(=O)[C@H](Cc2ccccc2)NC(=O)CSC[C@@H](C(=O)N[C@@H](C)C(N)=O)NC(=O)[C@H]([C@@H](C)O)NC(=O)[C@H](C(C)C)NC(=O)[C@H](CC(C)C)NC(=O)[C@H](CCN)NC(=O)[C@H]2CCCN2C(=O)[C@H](CCN)NC(=O)[C@H](C(C)C)NC(=O)[C@H](Cc2ccc(-c3ccccc3)cc2)NC1=O` [Example 1416] ({CH2CO}-FYDWL[Bip]V[Dab][dP][Dab]LVTCA-NH2; thioether N-14), the 50% inhibitory concentration (IC50) worked out at 0.24 µM.
